The assay addresses T1, human CCR5 chemokine receptor (Homo sapiens, UniProt P51681).
T1 construct: expressed in transfected cells; host or cells: NIH 3T3 cells (mouse fibroblasts), membrane preparation
As to the kind of experiment: CCR5 membrane binding assay (inhibition of RANTES binding). The note with it: membranes from NIH 3T3 cells expressing human CCR5; 125I-RANTES. The method, then:
CCR5 Membrane Binding Assay:
A high throughput screen utilizing a CCR5 membrane binding assay identifies inhibitors of RANTES binding. This assay utilizes membranes prepared from NIH 3T3 cells expressing the human CCR5 chemokine receptor which have the ability to bind to RANTES, a natural ligand for the receptor. Using a 96-well plate format, membrane preparations are incubated with ^125I-RANTES in the presence or absence of compound for one hour. Compounds are serially diluted over a wide range of 0.001 ug/ml to 1 ug/ml and tested in triplicates. Reaction cocktails are harvested through glass fiber filters, and washed thoroughly. Total counts for replicates are averaged and data reported as the concentration required to inhibit 50 percent of total ^125I-RANTES binding.

T1 sequence (P51681 whole entry): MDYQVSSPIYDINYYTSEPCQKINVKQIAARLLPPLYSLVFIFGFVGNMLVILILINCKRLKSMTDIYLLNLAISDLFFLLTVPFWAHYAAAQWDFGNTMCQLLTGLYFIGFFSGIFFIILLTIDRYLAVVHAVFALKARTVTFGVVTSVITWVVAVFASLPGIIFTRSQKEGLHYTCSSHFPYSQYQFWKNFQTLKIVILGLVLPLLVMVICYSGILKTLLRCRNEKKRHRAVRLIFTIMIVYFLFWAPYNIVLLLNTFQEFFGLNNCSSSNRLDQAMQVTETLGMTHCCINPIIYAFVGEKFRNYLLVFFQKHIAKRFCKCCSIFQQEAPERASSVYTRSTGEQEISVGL

Consider `Cc1ccnc(C)c1C(=O)N1CCC(C)(N2CCC(C(Oc3ccccn3)c3ccc(Br)cc3)CC2)CC1` (single isomer, unassigned) [Example 4B], for which affinity was put at a Ki of 0.5 nM.

As for `Cc1cccc(C)c1C(=O)N1CCC(C)(N2CCC(C(Oc3nccs3)c3ccc(Br)cc3)CC2)CC1` (stereo not shown) [Example 1J], the Ki (as a rule, a dissociation constant, usually derived from enzyme kinetics or from competition with a known ligand) turned out to be 1 nM.

Consider `Cc1ccnc(C)c1C(=O)N1CCC(C)(N2CCC(C(Oc3ccccn3)c3ccc(C(F)(F)F)cc3)CC2)CC1` (stereo not shown) [Example 2G], for which the Ki came to 1.8 nM.

In turn, `CC1(N2CCC(C(Oc3ccccn3)c3ccc(C(F)(F)F)cc3)CC2)CCN(C(=O)c2c(Cl)cncc2Cl)CC1` (stereo not shown) [Example 2JJ] gave a Ki of 0.58 nM.

`Cc1ccnc(C)c1C(=O)N1CCC(C)(N2CCC(C(Oc3cnccn3)c3ccc(S(C)(=O)=O)cc3)CC2)CC1` (stereo not shown) [Example 2S] gave a Ki of 17.9 nM.

With `CCO/N=C(\c1ccc(Br)cc1)C1CCN(C2(C)CCN(C(=O)c3c(C)cc(-c4ccncc4)cc3C)CC2)CC1` [Example 5AB], the affinity, expressed as Ki, was 0.1 nM.

The compound `CO/N=C(\c1ccc(Br)cc1)C1CCN(C2(C)CCN(C(=O)c3c(C)ncnc3C)CC2)CC1` [Example 5L] gave a Ki of 7.9 nM.

On to `CCO/N=C(\c1ccc(Br)cc1)C1CCN(C2(C)CCN(C(=O)c3c(C)ncnc3C)CC2)CC1` [Example 5N], for which the affinity, expressed as Ki, was 1.7 nM.

Regarding `CCO/N=C(\c1ccc(C(F)(F)F)cc1)C1CCN(C2(C)CCN(C(=O)c3c(Cl)cncc3Cl)CC2)CC1` [Example 6V], the Ki worked out at 0.8 nM.

`CC1(N2CCC(Cc3ccc(Br)cc3)CC2)CCN(C(=O)c2cccc3ccccc23)CC1` [Example 9D] showed an inhibition constant (Ki) of 588 nM.
